{"source": "ChEMBL document CHEMBL1201862", "about": "“PubChem BioAssay data set” (2004)", "test_in_all_cases": "inhibition of tumour cell growth, NCI panel, 48 h", "key": {"[1]": {"system": "COLO 205"}, "[2]": {"system": "K562"}, "[3]": {"system": "SK-MEL-28"}, "[4]": {"system": "A498"}, "[5]": {"system": "NCI-H522"}, "[6]": {"system": "SW-620"}, "[7]": {"system": "Malme-3M"}, "[8]": {"system": "UO-31"}, "[9]": {"system": "CCRF-CEM"}, "[10]": {"system": "DLD-1"}, "[11]": {"system": "HCT-15"}, "[12]": {"system": "SF-268"}, "[13]": {"system": "HOP-62"}, "[14]": {"system": "SK-OV-3"}, "[15]": {"system": "SN12C"}, "[16]": {"system": "KM-20L2"}, "[17]": {"system": "DMS-273"}, "[18]": {"system": "A549"}, "[19]": {"system": "EKVX"}, "[20]": {"system": "UACC-257"}, "[21]": {"system": "SF-539"}, "[22]": {"system": "NCI-H460"}, "[23]": {"system": "XF498"}, "[24]": {"system": "HT-29"}, "[25]": {"system": "MCF7"}, "[26]": {"system": "HOP-18"}, "[27]": {"system": "OVCAR-5"}, "[28]": {"system": "HL-60"}, "[29]": {"system": "IGROV-1"}, "[30]": {"system": "KM12"}, "[31]": {"system": "SF-295"}, "[32]": {"system": "HCC 2998"}, "[33]": {"system": "DMS-114"}, "[34]": {"system": "NCI-H23"}, "[35]": {"system": "MOLT-4"}, "[36]": {"system": "U-251"}, "[37]": {"system": "M19-MEL"}, "[38]": {"system": "UACC-62"}, "[39]": {"system": "SNB-75"}, "[40]": {"system": "CAKI-1"}, "[41]": {"system": "OVCAR-8"}, "[42]": {"system": "OVCAR-4"}, "[43]": {"system": "HOP-92"}, "[44]": {"system": "SK-MEL-2"}, "[45]": {"system": "RXF 393"}, "[46]": {"system": "SK-MEL-5"}, "[47]": {"system": "SNB-19"}, "[48]": {"system": "NCI-H226"}, "[49]": {"system": "LOX IMVI"}, "[50]": {"system": "HCT-116"}, "[51]": {"system": "SNB-78"}, "[52]": {"system": "NCI/ADR-RES"}, "[53]": {"system": "OVCAR-3"}, "[54]": {"system": "RPMI-8226"}}, "note": "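Each compound was tested at five concentrations against cells in 96-well plates for 48 hours. The concentration for 50% growth inhibition is given as GI50.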 The source made the active and inactive calls. No stated cut-off is given here; in the data, active = GI50 up to about 1.1 µM and inactive = higher."}
{"smiles": "CC1OC1C(=O)C1(O)C(C)C(O)C23OC2(C(O)c2c(O)cccc2C3=O)C1O", "note": "(centres undefined) [CERVICARCIN]", "values": [{"measurement": "GI50", "setting": "[1]", "result": "0.0706 µM (active)"}, {"measurement": "GI50", "setting": "[2]", "result": "0.175 µM (active)"}, {"measurement": "GI50", "setting": "[3]", "result": "0.182 µM (active)"}, {"measurement": "GI50", "setting": "[4]", "result": "0.352 µM (active)"}, {"measurement": "GI50", "setting": "[5]", "result": "0.0964 µM (active)"}, {"measurement": "GI50", "setting": "[6]", "result": "0.078 µM (active)"}, {"measurement": "GI50", "setting": "[7]", "result": "0.0431 µM (active)"}, {"measurement": "GI50", "setting": "[8]", "result": "0.137 µM (active)"}, {"measurement": "GI50", "setting": "[9]", "result": "0.044 µM (active)"}, {"measurement": "GI50", "setting": "[10]", "result": "0.167 µM (active)"}, {"measurement": "GI50", "setting": "[11]", "result": 0.195, "unit": "µM"}, {"measurement": "GI50", "setting": "[12]", "result": "0.0984 µM (active)"}, {"measurement": "GI50", "setting": "[13]", "result": "0.0895 µM (active)"}, {"measurement": "GI50", "setting": "[14]", "result": "0.111 µM (active)"}, {"measurement": "GI50", "setting": "[15]", "result": "0.0557 µM (active)"}, {"measurement": "GI50", "setting": "[16]", "result": "0.214 µM (active)"}, {"measurement": "GI50", "setting": "[17]", "result": "0.184 µM (active)"}, {"measurement": "GI50", "setting": "[18]", "result": "0.0488 µM (active)"}, {"measurement": "GI50", "setting": "[19]", "result": "0.0908 µM (active)"}, {"measurement": "GI50", "setting": "[20]", "result": "0.1 µM (active)"}, {"measurement": "GI50", "setting": "[21]", "result": "0.0647 µM (active)"}, {"measurement": "GI50", "setting": "[22]", "result": "0.118 µM (active)"}, {"measurement": "GI50", "setting": "[23]", "result": "0.253 µM (active)"}, {"measurement": "GI50", "setting": "[24]", "result": "0.173 µM (active)"}, {"measurement": "GI50", "setting": "[25]", "result": "0.228 µM (active)"}, {"measurement": "GI50", "setting": "[26]", "result": "0.0605 µM (active)"}, {"measurement": "GI50", "setting": "[27]", "result": "0.31 µM (active)"}, {"measurement": "GI50", "setting": "[28]", "result": "0.152 µM (active)"}, {"measurement": "GI50", "setting": "[29]", "result": "0.219 µM (active)"}, {"measurement": "GI50", "setting": "[30]", "result": "0.298 µM (active)"}, {"measurement": "GI50", "setting": "[31]", "result": "0.226 µM (active)"}, {"measurement": "GI50", "setting": "[32]", "result": "0.1 µM (active)"}, {"measurement": "GI50", "setting": "[33]", "result": "0.048 µM (active)"}, {"measurement": "GI50", "setting": "[34]", "result": "0.0938 µM (active)"}, {"measurement": "GI50", "setting": "[35]", "result": "0.0415 µM (active)"}, {"measurement": "GI50", "setting": "[36]", "result": "0.232 µM (active)"}, {"measurement": "GI50", "setting": "[37]", "result": "0.0933 µM (active)"}, {"measurement": "GI50", "setting": "[38]", "result": "0.245 µM (active)"}, {"measurement": "GI50", "setting": "[39]", "result": "0.212 µM (active)"}, {"measurement": "GI50", "setting": "[40]", "result": "0.0497 µM (active)"}, {"measurement": "GI50", "setting": "[41]", "result": "0.172 µM (active)"}, {"measurement": "GI50", "setting": "[42]", "result": "0.032 µM (active)"}, {"measurement": "GI50", "setting": "[43]", "result": "0.033 µM (active)"}, {"measurement": "GI50", "setting": "[44]", "result": "0.142 µM (active)"}, {"measurement": "GI50", "setting": "[45]", "result": "0.191 µM (active)"}, {"measurement": "GI50", "setting": "[46]", "result": "0.179 µM (active)"}, {"measurement": "GI50", "setting": "[47]", "result": "0.153 µM (active)"}, {"measurement": "GI50", "setting": "[48]", "result": "0.31 µM (active)"}, {"measurement": "GI50", "setting": "[49]", "result": "0.2 µM (active)"}, {"measurement": "GI50", "setting": "[50]", "result": "0.226 µM (active)"}, {"measurement": "GI50", "setting": "[51]", "result": "0.267 µM (active)"}, {"measurement": "GI50", "setting": "[52]", "result": "0.207 µM (active)"}, {"measurement": "GI50", "setting": "[53]", "result": "0.0638 µM (active)"}, {"measurement": "GI50", "setting": "[54]", "result": "0.0847 µM (active)"}]}
